Assay results published in patent publication US20230147712A1, “OLEYL PHOSPHOCHOLINE CONTAINING GRANULATES” (Oblita Therapeutics BVBA, priority 2020, published 2023).

Assay: Hygroscopicity of oleyl phosphocholine (water absorption)
Format: physicochemical
Settings: exposed to 90% RH at 25° C.
Procedure: The development of solid dosage formulations of oleyl phosphocholine, and specifically the development of tablets, is complicated by the low melting point (56.3° C.), high hygroscopicity (absorbing 41.67 weight percent of water when exposed to 90% RH at 25° C.) and irregular particle size and shape of oleyl phosphocholine. These characteristics make it hard to obtain homogeneous, dry powders for tableting.

- hygroscopicity: water absorbed: 41.67 weight percent
Compound: CCCCCCCC/C=C\CCCCCCCCOP(=O)([O-])OCC[N+](C)(C)C [oleyl phosphocholine]
